According to patent publication US20260355196A1, “INHIBITORS AND DEGRADERS OF PIP4K PROTEIN” (Larkspur Biosciences, Inc., priority 2023, published 2026):

target: T1, PIP4K2C (Homo sapiens, UniProt Q8TBX8); assay: HiBiT PIP4K2C degradation assay in MOLT-4 cells (endogenous PIP4K2C C-terminally tagged with HiBiT); type: cell-based; design: untagged in primary human PBMCs and monocyte-derived dendritic cells; details: 6 hours of incubation time, rather than 24 hours; MOLT-4, top concentration 10 micromolar; read-out: HiBIT-degradation MOLT4 PIP4k2C DC50 (6 hours, marked *)
T1 sequence (Q8TBX8 1-421): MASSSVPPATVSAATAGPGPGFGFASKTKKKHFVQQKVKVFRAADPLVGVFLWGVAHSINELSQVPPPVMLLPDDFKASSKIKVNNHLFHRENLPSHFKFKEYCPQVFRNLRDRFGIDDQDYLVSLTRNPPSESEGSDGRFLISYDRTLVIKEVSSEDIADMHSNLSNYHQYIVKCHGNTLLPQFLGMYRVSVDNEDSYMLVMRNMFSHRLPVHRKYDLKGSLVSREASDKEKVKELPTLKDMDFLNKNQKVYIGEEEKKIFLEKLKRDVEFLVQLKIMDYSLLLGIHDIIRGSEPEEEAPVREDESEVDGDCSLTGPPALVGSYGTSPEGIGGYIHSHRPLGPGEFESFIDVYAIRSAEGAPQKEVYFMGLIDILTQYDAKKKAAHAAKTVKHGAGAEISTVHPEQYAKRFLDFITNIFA
How it was run: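 Luminescent HiBiT lytic readout of residual PIP4K2C-HiBiT (CRISPR knock-in, MOLT-4, phenol red-free RPMI-1640 + 10% FBS). Cells exposed 6 or 24 h at 37 C to compound, top 10 micromolar, 3-fold, 10 points, duplicate. Hill fit (Levenberg-Marquardt) gives DC50.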

Row | SMILES | DC50
1 | O=C1CCC(Nc2ccc(C3CCN(C4CCN(C(=O)O[C@H]5CC[C@H](Nc6ncc(F)c(-c7cccc(-n8ccccc8=O)c7)n6)CC5)CC4)CC3)c(F)c2)C(=O)N1 (stereo partly drawn) [Compound 474, trans-4-((5-fluoro-4-(3-(2-oxopyridin-1 (2H)-yl)phenyl)pyrimidin-2-yl)amino)cyclohexyl 4-(4-((2,6-dioxopiperidin-3-yl)amino)-2-fluorophenyl)-[1,4′-bipiperidine]-1′-carboxylate] | < 500 nM
2 | O=C1CC[C@H](Nc2ccc(N3CCN([C@H]4CC[C@H](NC(=O)[C@H]5CC[C@H](Nc6ncc(F)c(-c7cccc(-n8ccccc8=O)c7)n6)CC5)CC4)CC3)c(F)c2)C(=O)N1 (single isomer, unassigned) [Compound 436] | < 500 nM
3 | O=C1CCC(Nc2ccc(N3CCC(N4CCC(C(=O)N[C@H]5CC[C@H](Nc6ncc(F)c(-c7cccc(C8CC8)c7)n6)CC5)CC4)C(F)C3)c(F)c2)C(=O)N1 (stereo partly drawn) [Compound 502, N-((1r,4r)-4-((4-(3-cyclopropylphenyl)-5-fluoropyrimidin-2-yl)amino)cyclohexyl)-1′-(4-((2,6-dioxopiperidin-3-yl)amino)-2-fluorophenyl)-3′-fluoro-[1,4′-bipiperidine]-4-carboxamide] | < 500 nM
4 | O=C1CC[C@@H](Nc2ccc(N3CCN([C@H]4CC[C@H](C(=O)N[C@H]5CC[C@H](Nc6ncc(F)c(-c7cccc(N8CCCCC8=O)c7)n6)CC5)CC4)CC3)c(F)c2)C(=O)N1 [Compound 412, trans-(1r,4R)-4-(4-(4-((2,6-dioxopiperidin-3-yl)amino)-2-fluorophenyl)piperazin-1-yl)-N-((1r,4R)-4-((5-fluoro-4-(3-(2-oxopiperidin-1-yl)phenyl)pyrimidin-2-yl)amino)cyclohexyl)cyclohexane-1-carboxamide] | < 500 nM
5 | O=C1CCC(Nc2ccc(N3CCN([C@H]4CC[C@H](C(=O)N[C@H]5CC[C@H](Nc6ncc(F)c(-c7cccc(N8CCOCC8=O)c7)n6)CC5)CC4)CC3)c(F)c2)C(=O)N1 (stereo partly drawn) [Compound 536, trans-4-(4-(4-((2,6-dioxopiperidin-3-yl)amino)-2-fluorophenyl)piperazin-1-yl)-N-(trans-4-((5-fluoro-4-(3-(3-oxomorpholino)phenyl)pyrimidin-2-yl)amino)cyclohexyl)cyclohexane-1-carboxamide] | < 500 nM
6 | O=C1CCC(Nc2ccc(C3CCN([C@H]4CC[C@H](NC(=O)[C@H]5CC[C@H](Nc6ncc(F)c(-c7ccnc(-n8ccccc8=O)c7)n6)CC5)CC4)CC3)c(F)c2)C(=O)N1 (stereo partly drawn) [Compound 696, trans-N-(trans-4-(4-(4-((2,6-dioxopiperidin-3-yl)amino)-2-fluorophenyl)piperidin-1-yl)cyclohexyl)-4-((5-fluoro-4-(2-oxo-2H-[1,2′-bipyridin]-4′-yl)pyrimidin-2-yl)amino)cyclohexane-1-carboxamide] | < 500 nM
7 | O=C1CCC(Nc2ccc(N3CCN(CC4(O)CCN(C(=O)[C@H]5CC[C@H](Nc6ncc(F)c(-c7cccc(N8CCOCC8=O)c7)n6)CC5)CC4)CC3)c(F)c2)C(=O)N1 (stereo partly drawn) [Compound 588] | < 500 nM
8 | O=C1CCC(Nc2ccc(N3CCN(C4CCN(C(=O)O[C@H]5CC[C@H](Nc6ncc(F)c(-c7cccc(-n8ccccc8=O)c7)n6)CC5)CC4)CC3)c(F)c2)C(=O)N1 (stereo partly drawn) [Compound 475, trans-4-((5-fluoro-4-(3-(2-oxopyridin-1 (2H)-yl)phenyl)pyrimidin-2-yl)amino)cyclohexyl 4-(4-(4-((2,6-dioxopiperidin-3-yl)amino)-2-fluorophenyl)piperazin-1-yl)piperidine-1-carboxylate] | < 500 nM
9 | Cn1nc(C2CCC(=O)NC2=O)c2ccc(C3CCN(CC4CCN(C(=O)[C@H]5CC[C@H](Nc6ncc(F)c(-c7cccc(-c8ccc[nH]c8=O)c7)n6)CC5)CC4)CC3)cc21 (stereo partly drawn) [Compound 391, trans-3-(6-(1-((1-(4-((5-fluoro-4-(3-(2-oxo-1,2-dihydropyridin-3-yl)phenyl)pyrimidin-2-yl)amino)cyclohexane-1-carbonyl)piperidin-4-yl)methyl)piperidin-4-yl)-1-methyl-1H-indazol-3-yl)piperidine-2,6-dione] | < 500 nM
10 | O=C1CCC(Nc2ccc(N3CCN(CC4(O)CCN(C(=O)[C@H]5CC[C@H](Nc6ncc(F)c(-c7cccc(N8CCCCC8=O)c7)n6)CC5)CC4)CC3)c(F)c2)C(=O)N1 (stereo partly drawn) [Compound 582, trans-3-((3-fluoro-4-(4-((1-(4-((5-fluoro-4-(3-(2-oxopiperidin-1-yl)phenyl)pyrimidin-2-yl)amino)cyclohexane-1-carbonyl)-4-hydroxypiperidin-4-yl)methyl)piperazin-1-yl)phenyl)amino)piperidine-2,6-dione] | < 500 nM
11 | O=C1CCC(Nc2ccc(C3CCN([C@H]4CC[C@H](C(=O)N[C@H]5CC[C@H](Nc6ncc(F)c(-c7ccnc(C8(O)CCC8)c7)n6)CC5)CC4)CC3)c(F)c2)C(=O)N1 (stereo partly drawn) [Compound 569, trans-(1r,4R)-4-(4-(4-((2,6-dioxopiperidin-3-yl)amino)-2-fluorophenyl)piperidin-1-yl)-N-((1r,4R)-4-((5-fluoro-4-(2-(1-hydroxycyclobutyl)pyridin-4-yl)pyrimidin-2-yl)amino)cyclohexyl)cyclohexane-1-carboxamide] | < 500 nM

same assay, conditions: 24 hours incubation, MOLT-4, top concentration 10 micromolar; read-out: HiBIT-degradation MOLT4 PIP4k2C 24 hours DC50

Row | SMILES | DC50
12 | O=C1CCC(Nc2ccc(C3CCN(CC4CCN(C(=O)[C@H]5CC[C@H](Nc6ncc(F)c(-c7cccc(-n8ccccc8=O)c7)n6)CC5)CC4)CC3)c(F)c2)C(=O)N1 (stereo partly drawn) [Compound 318, trans-3-((3-fluoro-4-(1-((1-(4-((5-fluoro-4-(3-(2-oxopyridin-1(2H)-yl)phenyl)pyrimidin-2-yl)amino)cyclohexane-1-carbonyl)piperidin-4-yl)methyl)piperidin-4-yl)phenyl)amino)piperidine-2,6-dione] | < 500 nM
13 | O=C1CCC(n2c(=O)oc3cc(C4CCN(CC5CCN(C(=O)CN6CCC(Nc7ncc(F)c(-c8cccc(-n9ccccc9=O)c8)n7)CC6=O)CC5)CC4)ccc32)C(=O)N1 (stereo not drawn) [Compound 367, 3-(6-(1-((1-(2-(4-((5-fluoro-4-(3-(2-oxopyridin-1(2H)-yl)phenyl)pyrimidin-2-yl)amino)-2-oxopiperidin-1-yl)acetyl)piperidin-4-yl)methyl)piperidin-4-yl)-2-oxobenzo[d]oxazol-3 (2H)-yl)piperidine-2,6-dione] | < 500 nM
14 | O=C1CCC(Oc2ccc(N3CCC(O)(CC(=O)N4CCN(C(=O)[C@H]5CCC[C@@H](Nc6ncc(Cl)c(-c7cccc(-c8ccc(F)cc8)c7)n6)C5)CC4)CC3)c(F)c2)C(=O)N1 (relative stereo) [Compound 292, cis-3-(4-(4-(2-(4-(3-((5-chloro-4-(4′-fluoro-[1,1′-biphenyl]-3-yl)pyrimidin-2-yl)amino)cyclohexane-1-carbonyl)piperazin-1-yl)-2-oxoethyl)-4-hydroxypiperidin-1-yl)-3-fluorophenoxy)piperidine-2,6-dione] | > 5000 nM
15 | O=C1CCC(N2Cc3cc(OC4CCN(C(=O)C5CCN(C(=O)C6CCC[C@@H](Nc7ncc(Cl)c(-c8cccc(-c9ccccc9)c8)n7)C6)CC5)CC4)ccc3C2=O)C(=O)N1 (stereo in doubt) [Compound 77, cis-3-(5-((1-(1-(3-((4-([1,1′-biphenyl]-3-yl)-5-chloropyrimidin-2-yl)amino)cyclohexane-1-carbonyl)piperidine-4-carbonyl)piperidin-4-yl)oxy)-1-oxoisoindolin-2-yl)piperidine-2,6-dione] | < 500 nM
16 | Cn1c(=O)n(C2CCC(=O)NC2=O)c2ccc(C3CCN(CC(=O)N4CCN(C(=O)[C@H]5CCC[C@@H](Nc6ncc(Cl)c(-c7cccc(-c8ccccc8)c7)n6)C5)CC4)CC3)cc21 (relative stereo) [Compound 51, cis-3-(5-(1-(2-(4-(3-((4-([1,1′-biphenyl]-3-yl)-5-chloropyrimidin-2-yl)amino)cyclohexane-1-carbonyl)piperazin-1-yl)-2-oxoethyl)piperidin-4-yl)-3-methyl-2-oxo-2,3-dihydro-1H-benzo[d]imidazol-1-yl)piperidine-2,6-dione] | < 500 nM
17 | O=C1CCC(n2c(=O)oc3cc(C4CCN(CCC5CCN(C(=O)[C@@H]6CCC[C@H](Nc7ncc(F)c(-c8cccc(N9CCCCC9=O)c8)n7)C6)CC5)CC4)ccc32)C(=O)N1 (stereo partly drawn) [Compound 356, 3-(6-(1-(2-(1-((1R,3S)-3-((5-fluoro-4-(3-(2-oxopiperidin-1-yl)phenyl)pyrimidin-2-yl)amino)cyclohexane-1-carbonyl)piperidin-4-yl)ethyl)piperidin-4-yl)-2-oxobenzo[d]oxazol-3 (2H)-yl)piperidine-2,6-dione] | < 500 nM
18 | O=C1CCC(N2Cc3cc(OC4CCN(CCN5CCN(C(=O)[C@H]6CCC[C@@H](Nc7ncc(Cl)c(-c8cccc(-c9ccccc9)c8)n7)C6)CC5)CC4)ccc3C2=O)C(=O)N1 (relative stereo) [Compound 80, cis-3-(5-((1-(2-(4-(3-((4-([1,1′-biphenyl]-3-yl)-5-chloropyrimidin-2-yl)amino)cyclohexane-1-carbonyl)piperazin-1-yl)ethyl)piperidin-4-yl)oxy)-1-oxoisoindolin-2-yl)piperidine-2,6-dione] | < 500 nM
